{
  "source": "paper PMC9297664",
  "about": "“Cationic peptide carriers enable long-term delivery of insulin-like growth factor-1 to suppress osteoarthritis-induced matrix degradation” (Arthritis Research & Therapy, 2022)",
  "key": {"[1]": {"test": "Depth of penetration, 1-D transport chamber, confocal imaging, absorption then desorption", "format": "in vitro ADME, bovine", "protocol": "The chamber was placed in a covered petri dish with DI water inside an incubator at 37 °C under gentle shaking. After 24 h, a 100 μm slice was cut from the center of the explant and imaged using a confocal microscope (Zeiss LSM 800). Cy5 (red channel) was excited 640 nm laser and FITC (green channel) was excited using a 488 nm laser. Z-stacks of images from both channels were obtained and maximum intensity along the z-axis was projected. The intensity across the thickness to represent the penetration concentration profile was plotted along a straight line from the superficial to deep zone using FIJI."}, "[2]": {"system": "IL-1α treated cartilage explants", "test": "GAG loss from cartilage (DMMB), IL-1α-challenged explant culture post-traumatic OA model", "format": "cell-based, bovine", "settings": "IL-1α 2 ng/mL", "protocol": "(§1) Media was collected and changed every 2 days and IL-1α was replenished with each media change. […] IL-1α is chosen for this in-vitro post-traumatic (PTOA) model as it is elevated during the inflammatory phase following an injury and causes degradation of aggrecans, collagens, inhibits proteoglycan synthesis, and alters chondrocyte viability. 2 ng/mL concentration was chosen as it represents a moderately aggressive cytokine treatment.\nAfter 16 days of culture, the cartilage explants were weighed and digested using Proteinase-K solution in Tris buffer at pH 8. The cumulative GAG released to the media and the residual GAG content in the digested tissue explants was measured using DMMB assay. The GAG content was expressed as a percentage of the total GAG content (in media + residual GAG in the digested explant)."}, "[3]": {"system": "IL-1α treated cartilage explants", "test": "Nitrite release from cartilage to medium (Griess assay)", "format": "cell-based, bovine", "settings": "IL-1α 2 ng/mL; for Nitrite production: days 2, 8 and 16", "protocol": "as §1\nNitrite content was measured using the Griess assay as a marker of nitric oxide (NO) release from cartilage into the medium. Equal volumes of Griess reagent and culture media collected every two days were mixed and incubated at room temperature for 15 min, and absorbance at 540 nm was measured using a microplate reader (Synergy H1, Biotek). Sodium nitrite solution in DMEM was used as a standard to convert absorbance readings to nitrite content in the sample medium."}, "[4]": {"system": "IL-1α treated cartilage explants", "test": "Cellular metabolism in cartilage explants (AlamarBlue)", "format": "cell-based, bovine", "settings": "IL-1α 2 ng/mL, days 8 and 16", "protocol": "as §1\nOn days 8 and 16 of culture, cellular metabolism in cartilage explants was determined by measuring the metabolic oxidation activity by using AlamarBlue assay. Briefly, cartilage explants were individually incubated with media containing 1× resazurin sodium salt for 3 h in the dark at 37 °C and 5% CO2. Cell metabolic activity was estimated by measuring fluorescence at 530 nm excitation and 590 nm emission wavelengths using a microplate reader (Synergy H1, Biotek)."}, "[5]": {"system": "chondrocytes in IL-1α treated cartilage explants", "test": "Chondrocyte viability in cartilage (FDA/PI live-dead staining)", "format": "cell-based, bovine", "settings": "IL-1α 2 ng/mL, days 8 and 16", "protocol": "as §1\nOn days 8 and 16 of culture, 100 μm thick slices were cut from the center of cartilage disks as described before. Cartilage slices were stained with FDA (4 mg/ml in PBS) and PI ([…] in PBS) for 5 min. FDA stained viable cells green and PI stained the non-viable cells red. Slices were washed with PBS and imaged using a fluorescence microscope (Nikon Eclipse TS2R) at 4× objective. The viable and non-viable cell images were overlaid using ImageJ."}, "endplate chondrocytes": {"system": "endplate chondrocytes", "settings": "IGF-1 administration; cited from earlier work"}, "[6]": {"system": "IL-1 and TNF-α challenged cartilage", "settings": "cited from earlier work", "description": "Media was collected and changed every 2 days and IL-1α was replenished with each media change."}, "[7]": {"system": "human OA cartilage explants", "parameters": "method as in PMID 18050312", "settings": "cited from earlier work"}, "[8]": {"parameters": "method as in 3 sources, ref 37 = [37]; PMID 24470361; doi:10.1002/art.38357; 37. Loffredo FS Pancoast JR Cai L Vannelli T Dong JZ Lee RT Targeted delivery to cartilage is critical for in vivo efficacy of insulin-like growth factor 1 in a rat model of osteoarthritis Arthritis R ||| ref 42 = [42]; PMID 20722014; doi:10.1002/art.27709; 42. Miller RE Grodzinsky AJ Cummings K Plaas AHK Cole AA Lee RT Intraarticular injection of heparin-binding insulin-like growth factor 1 sustains delivery of insulin-like growth factor 1 to cartilage ||| ref 43 = [43]; PMID 30487252; doi:10.1126/scitranslmed.aat8800; 43. Geiger BC Wang S Padera RF Grodzinsky AJ Hammond PT Cartilage-penetrating nanocarriers improve delivery and efficacy of growth factor treatment of osteoarthritis Sci Transl Med 2018 10 eaat8800 10", "settings": "cited from earlier work; for Detection in cartilage samples: rat cartilage, 6 days post-IA injection"}, "rat knee joints": {"system": "rat knee joints", "settings": "post-IA injection in ACL transected (ACLT) rat knee joints, compared to free IGF-1; cited from earlier work", "description": "The high negative FCD of cartilage resulting from the negatively charged GAGs provides a unique opportunity to make drug cartilage penetrating using cationic carriers."}, "[9]": {"settings": "single dose 1000 ng/ml IGF-1 (S), free or as conjugate"}},
  "note": "“Also recorded” adds a separate entry of the source.",
  "data": [
    {"substance": "IGF-1: Human recombinant insulin-like growth factor-1, ~7.6 kDa pro-anabolic growth factor (PeproTech)", "values": [
      {"measurement": "Depth of penetration from superficial to deep zone", "setting": "[1]", "result": "penetrated through the full thickness of cartilage"},
      {"measurement": "Retention in cartilage after desorption", "setting": "[1]", "result": "most of the free IGF-1 desorbed out of the cartilage"},
      {"measurement": "Time for desorption out of the cartilage", "setting": "[1]", "result": "≤ 24", "unit": "h"},
      {"measurement": "GAG loss to media", "setting": "[2]; continuous dose 100 ng/ml (C), replenished every 2 days, 16-day culture", "result": "keep the GAG loss levels down to control levels"},
      {"measurement": "GAG loss to media", "setting": "[2]; single dose 100 ng/ml (S), first 2 days only, day 2", "result": "significantly inhibited GAG loss by day 2"},
      {"measurement": "Cumulative GAG loss to media", "setting": "[2]; single dose 1000 ng/ml IGF-1 (S), free or as conjugate, 16-day culture", "result": "remained ineffective in providing a prolonged effect"},
      {"measurement": "Cumulative nitrite levels", "setting": "[3]; continuous dose 100 ng/ml (C), 16 days", "result": "significantly suppressed the IL-1-induced cumulative nitrite levels"},
      {"measurement": "Nitrite production", "setting": "[3]; single dose 100 ng/ml (S)", "result": "suppressed nitrite production only on day 2"},
      {"measurement": "Nitrite production", "setting": "[3]; [9]", "result": "suppressed nitrite production only on day 2"},
      {"measurement": "Chondrocyte metabolic activity", "setting": "[4]; continuous dose 100 ng/ml (C)", "result": "match the response from the untreated control condition"},
      {"measurement": "Chondrocyte metabolic activity", "setting": "[4]; single dose 100 ng/ml (S)", "result": "not effective in rescuing chondrocyte metabolic activity or viability"},
      {"measurement": "Chondrocyte metabolic activity", "setting": "[4]; [9]", "result": "failed to rescue the reduced cell metabolism and viability over the long-term; also recorded: ineffective in rescuing the reduced metabolic rate"},
      {"measurement": "Chondrocyte viability", "setting": "[5]; continuous dose 100 ng/ml (C)", "result": "match the response from the untreated control condition"},
      {"measurement": "Chondrocyte viability", "setting": "[5]; single dose 100 ng/ml (S)", "result": "not effective in rescuing chondrocyte metabolic activity or viability"},
      {"measurement": "Chondrocyte viability", "setting": "[5]; [9]", "result": "failed to rescue the reduced cell metabolism and viability over the long-term; also recorded: not effective"},
      {"measurement": "Decrease of MMP-13 expression", "setting": "endplate chondrocytes", "result": 50, "unit": "%"},
      {"measurement": "Saturating concentration for suppression of GAG loss", "setting": "[6]; IL-1 and TNF-α challenged cartilage culture models, multiple dosing", "result": 100, "unit": "ng/mL"},
      {"measurement": "Concentration at which the therapeutic effect saturates (suppression of IL-1α-induced catabolic activity)", "setting": "[6]; similar cartilage explant culture model", "result": 100, "unit": "ng/mL"},
      {"measurement": "Increase of proteoglycan synthesis", "setting": "[7]; 3 ng/ml IGF-1, milder degree of OA explants (MANKIN score 4)", "result": 1.8, "unit": "fold"},
      {"measurement": "Enhancement of proteoglycan synthesis", "setting": "[7]; 30 ng/ml IGF-1, advanced OA cartilage explants (MANKIN score 8)", "result": 2.6, "unit": "fold"},
      {"measurement": "Retention in cartilage / joint tissues", "setting": "[8]; 24 h post-IA injection in rats", "result": "no free IGF-1 was detectable in any joint tissues"},
      {"measurement": "Retention in cartilage", "setting": "[8]; 2 days post-IA injection in rat knees", "result": "no retention of free IGF-1 was observed in cartilage"},
      {"measurement": "Detection in cartilage samples", "setting": "[8]", "result": "no trace of free IGF-1 was detectable"}
    ]},
    {"substance": "PAMAM-IGF-1: IGF-1 carried by polyamidoamine (PAMAM) dendrimer cationic nanoparticles (Gen 6, 58 kDa) [reference compound]", "values": [
      {"measurement": "Detection in cartilage samples", "setting": "[8]", "result": "detected"},
      {"measurement": "Duration of bioavailability of IGF-1 in the knee joint space", "setting": "[8]; rat knee joint space post-IA injection", "result": 30.4, "unit": "days"},
      {"measurement": "Matrix degradation and osteophyte formation", "setting": "rat knee joints", "result": "significantly suppressed matrix degradation and osteophyte formation"}
    ]}
  ]
}
